PMC10364322, “Evaluation of chronic drug-induced electrophysiological and cytotoxic effects using human-induced pluripotent stem cell-derived cardiomyocytes (hiPSC-CMs)” (Frontiers in Pharmacology, 2023)
Where two headings read alike, the source gives them in different places.

Assays:
[1] = tested on: hiPSC-CMs (iCell-Cardiomyocytes^2); test: MEA impedance (cytotoxicity readout) in hiPSC-CMs
[2] = tested on: hiPSC-CMs (iCell-Cardiomyocytes^2); test: ApoLive-Glo Multiplex Assay: viability (live cells); format: cell-based, human
Method: (§1) iCell-Cardiomyocytes^2 (Fujifilm Cellular Dynamics Inc., Madison, WI, United States) were seeded into 96 well-plates (Greiner Bio One, ref. 655946) according to the manufacturer instructions, at a density of 50 k cells/well. […] To assess effects on viability and cytotoxicity, two assay combination kits were used: 1) RealTime-Glo™ Annexin V Apoptosis and Necrosis Assay [Promega, JA1011 ([Kupcho et al., 2019])] and 2) ApoLive-Glo Multiplex Assay [Promega, G6410 ([Flörkemeier et al., 2022])]. The assays were performed according to manufacturer instructions. The experiments were repeated at 24, 48, and 72 h in order to assess any time-dependent change in live cells or activation of cell-death pathways.
(§2) The nonparametric Wilcoxon-Mann Whitney Test was used to compare the percent change from the baseline (Δ%) value between the group treated with the compound at a given concentration and the group treated with the DMSO at each matching time points. A two-sided test at 5% significance level was considered. […] To assess the physiological relevance of changes, a tolerance interval of DMSO experiments was calculated at each time point, for each parameter. Specifically, the Δ% values of all (pooled) DMSO wells (N = 81) were used to obtain the non-parametric 80%–95% (p = 0.80 & 1-α = 0.95) tolerance interval (TI). TIs indicate an interval where, with a certain confidence level (1- α = 0.95), a specified proportion (p = 0.80) of percent change for DMSO data falls. The lower and upper limits based on the TI values were used as cut-offs for the interpretation of the changes. For the cytotoxicity assays, measurements of fluorescence (after background fluorescence subtraction) from wells treated with the compounds were normalized by the average value of vehicle experiments (DMSO 0.1%) to obtain a DMSO-corrected, delta/delta percent change. Experiments from each condition, as delta/delta percent, were averaged and expressed as mean ± SD. Statistical analysis was performed using a non-parametric test (Kruskal-Wallis) and each treatment condition was compared to the relative DMSO 0.1%. Differences were considered statistically significant when the p-value was smaller than 0.05.

[3] = tested on: caspases 3,7 in hiPSC-CMs; test: ApoLive-Glo Multiplex Assay: apoptosis, caspases 3,7 activation; format: cell-based, human
Method: as §1, §2

[4] = tested on: Annexin V activation in hiPSC-CMs; format: cell-based; conditions: for Annexin V (apoptosis activation), Mean±SD: 0.3 µM
Method: The assays were performed according to manufacturer instructions.
as §2, with “Specifically, the Δ% values of all (pooled) DMSO wells (N = 81) were used to obtain the non-parametric 80%–95% (p = 0.80 & 1-α = 0.95) tolerance interval (TI).” left out

[5] = tested on: hiPSC-CMs (iCell-Cardiomyocytes^2); test: RealTime-Glo Annexin V Apoptosis and Necrosis Assay: necrosis; format: cell-based, human
Method: as §1, §2

patients = tested on: patients; set-up: method as in Wenningmann et al., 2019; conditions: doses above 700 mg/m^2; ref Wenningmann et al., 2019; cited from earlier work

COc1cccc2c1C(=O)c1c(O)c3c(c(O)c1C2=O)C[C@@](O)(C(=O)CO)C[C@@H]3O[C@H]1C[C@H](N)[C@H](O)[C@H](C)O1 [Doxorubicin]
Imp (impedance), % change from baseline ([1]; 0.1 µM, 2h): 3±5% | Imp (impedance), % change from baseline ([1]; 0.1 µM, 24h): -8±5% | Imp (impedance), % change from baseline ([1]; 0.1 µM, 48h): -20±4% | Imp (impedance), % change from baseline ([1]; 0.1 µM, 72h): -27±4% | Imp (impedance), % change from baseline ([1]; 0.1 µM, 96h): -30±8% | Imp (impedance), % change from baseline ([1]; 0.3 µM, 2h): -1±1% | Imp (impedance), % change from baseline ([1]; 0.3 µM, 24h): -23±6 % | Imp (impedance), % change from baseline ([1]; 0.3 µM, 48h): -47±6 % | Imp (impedance), % change from baseline ([1]; 0.3 µM, 72h): -70±7 % | decrease in the impedance signal ([1]; 0.3 µM, 72h): ~70% | Imp (impedance), % change from baseline ([1]; 0.3 µM, 96h): -81±7 % | Imp (impedance), % change from baseline ([1]; 1 µM, 2h): -1±2% | Imp (impedance), % change from baseline ([1]; 1 µM, 24h): -56±4 % | Imp (impedance), % change from baseline ([1]; 1 µM, 48h): -86±1 % | Imp (impedance), % change from baseline ([1]; 1 µM, 72h): -89±2 % | Imp (impedance), % change from baseline ([1]; 1 µM, 96h): -89±2 % | Imp (impedance), % change from baseline ([1]; 3 µM, 72h): -87±0 % | Imp (impedance), % change from baseline ([1]; 3 µM, 96h): -88±1 % | Imp (impedance), % change from baseline ([1]; 3 µM, 2h): -2±0% | Imp (impedance), % change from baseline ([1]; 3 µM, 24h): -56±5 % | Imp (impedance), % change from baseline ([1]; 3 µM, 48h): -85±2 % | Live Cells (viability), Mean±SD ([2]; 0.3 µM, 24h): -7.1±16.9 Δ/Δ% | Live Cells (viability), Mean±SD ([2]; 0.3 µM, 48h): -9±11.9 Δ/Δ% | drop in live cells assay ([2]; 0.3 µM, 72h): ~40% | Live Cells (viability), Mean±SD ([2]; 1 µM, 24h): -10.5±16.2 Δ/Δ% | number of live cells ([2]; 10 µM, 24, 48, 72 h): strong impact on the number of live cells, further decreasing over time | Caspases 3, 7 (apoptosis activation), Mean±SD ([3]; 0.3 µM, 24h): 0.6±15.9 Δ/Δ% | Caspases 3, 7 (apoptosis activation), Mean±SD ([3]; 0.3 µM, 48h): 109.5±125.1 Δ/Δ% | Caspases 3, 7 (apoptosis activation), Mean±SD ([3]; 10 µM, 72h): 113±14.3 Δ/Δ% | activation of caspases 3,7 (apoptosis) ([3]; 24, 48, 72 h): induced the largest activation of caspases 3,7 | Annexin V (apoptosis activation), Mean±SD ([4]; 24h): 24.6±24 Δ/Δ% | Annexin V (apoptosis activation), Mean±SD ([4]; 48h): 31.2±28.5 Δ/Δ% | activation of Annexin V (apoptosis) ([4]; 24, 48, 72 h): largest activation of caspases 3,7, and of Annexin V | Necrosis, Mean±SD ([5]; 0.3 µM, 24h): 9.8±45.2 Δ/Δ% | Necrosis, Mean±SD ([5]; 0.3 µM, 48h): 40.2±103.1 Δ/Δ% | Necrosis, Mean±SD ([5]; 1 µM, 24h): 9.8±27 Δ/Δ% | Necrosis, Mean±SD ([5]; 1 µM, 48h): 72.9±120.4 Δ/Δ% | activation of necrosis ([5]; over time, especially at 72 h): also showed the activation of necrosis | congestive heart failure, share of patients (patients): up to 48%
